From patent publication US12129275B2, “Neuroactive steroids, compositions, and uses thereof” (SAGE THERAPEUTICS, INC., priority 2011, dated 2024)
Where “and” joins values, the source holds several entries; their conditions need not be identical. Equal values may be shown once.

molecular target: T1, NMDA receptor (GRIN1/GRIN2A subunits) (Homo sapiens, UniProt Q05586+Q12879); assay: NMDA potentiation, whole-cell patch-clamp in HEK cells; format: cell-based; settings: compound 0.1 uM, currents evoked by 30 μM NMDA and 5.0 μM Glycine, holding potential −80 mV
T1 construct: expressed in transfected cells
T1 sequence (Q12879 23-1464, other chains not shown): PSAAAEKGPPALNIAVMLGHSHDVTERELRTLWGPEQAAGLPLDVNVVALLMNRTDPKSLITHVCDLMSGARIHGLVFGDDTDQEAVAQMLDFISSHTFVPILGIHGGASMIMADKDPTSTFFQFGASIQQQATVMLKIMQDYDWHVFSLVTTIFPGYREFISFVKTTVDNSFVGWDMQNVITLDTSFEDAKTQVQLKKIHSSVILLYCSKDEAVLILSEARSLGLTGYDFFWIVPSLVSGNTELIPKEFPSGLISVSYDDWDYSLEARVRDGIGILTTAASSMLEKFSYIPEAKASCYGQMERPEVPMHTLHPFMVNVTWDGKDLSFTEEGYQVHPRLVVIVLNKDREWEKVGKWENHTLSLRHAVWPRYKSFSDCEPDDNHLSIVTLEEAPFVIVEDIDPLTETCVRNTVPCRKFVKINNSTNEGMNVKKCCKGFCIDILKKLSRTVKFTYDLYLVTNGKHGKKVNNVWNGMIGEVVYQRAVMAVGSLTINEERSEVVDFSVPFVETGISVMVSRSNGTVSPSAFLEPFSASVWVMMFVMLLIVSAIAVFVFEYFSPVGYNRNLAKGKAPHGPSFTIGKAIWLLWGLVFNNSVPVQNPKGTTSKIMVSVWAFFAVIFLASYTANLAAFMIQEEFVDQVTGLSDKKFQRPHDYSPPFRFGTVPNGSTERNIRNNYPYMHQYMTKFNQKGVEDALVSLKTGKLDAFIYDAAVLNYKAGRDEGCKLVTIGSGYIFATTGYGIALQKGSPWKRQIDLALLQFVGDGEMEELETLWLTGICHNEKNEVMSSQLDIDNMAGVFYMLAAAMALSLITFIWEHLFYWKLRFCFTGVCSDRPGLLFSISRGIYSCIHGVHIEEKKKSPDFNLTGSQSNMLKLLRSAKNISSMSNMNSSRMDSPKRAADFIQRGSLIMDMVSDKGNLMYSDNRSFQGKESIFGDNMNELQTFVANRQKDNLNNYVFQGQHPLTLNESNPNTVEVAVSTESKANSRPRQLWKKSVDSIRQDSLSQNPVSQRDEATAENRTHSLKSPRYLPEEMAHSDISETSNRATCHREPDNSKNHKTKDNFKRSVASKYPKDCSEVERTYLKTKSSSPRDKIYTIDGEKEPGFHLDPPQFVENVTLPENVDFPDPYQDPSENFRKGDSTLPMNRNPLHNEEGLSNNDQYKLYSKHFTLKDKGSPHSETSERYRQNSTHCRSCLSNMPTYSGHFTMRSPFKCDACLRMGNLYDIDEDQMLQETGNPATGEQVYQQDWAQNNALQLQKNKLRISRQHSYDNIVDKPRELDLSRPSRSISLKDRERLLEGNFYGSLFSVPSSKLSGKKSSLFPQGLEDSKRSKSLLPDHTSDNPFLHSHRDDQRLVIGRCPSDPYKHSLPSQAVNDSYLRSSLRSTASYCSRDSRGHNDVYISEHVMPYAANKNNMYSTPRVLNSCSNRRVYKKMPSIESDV

Row | Compound | NMDA 1a2A (%) Potentiation 0.1 uM
1 | CC(CCC(C)(C)O)[C@H]1CC[C@H]2[C@@H]3CC=C4C[C@@H](O)CC[C@]4(C)[C@H]3CC[C@]12C (stereo partly shown) | 55%
2 | C[C@H](CCC(C)(C)O)[C@H]1CC[C@H]2[C@@H]3CC=C4C[C@@](C)(O)CC[C@]4(C)[C@H]3CC[C@]12C | 128%
3 | C[C@H](CCC(C)(C)O)[C@H]1CC[C@H]2[C@@H]3CC=C4C[C@@H](O)CC[C@@H]4[C@H]3CC[C@]12C | 28%
4 | C[C@H](CCC1(O)CC1)[C@H]1CC[C@H]2[C@@H]3CC=C4C[C@@H](O)CC[C@]4(C)[C@H]3CC[C@]12C | 74%
5 | C[C@H](CC(F)(F)CO)[C@H]1CC[C@H]2[C@@H]3CC=C4C[C@@H](O)CC[C@]4(C)[C@H]3CC[C@]12C | 31%
6 | C[C@H](CCCO)[C@H]1CC[C@H]2[C@@H]3CC=C4C[C@@H](O)CC[C@]4(C)[C@H]3CC[C@]12C | 39%
7 | C[C@H](CCC(C)(C)O)[C@H]1CC[C@H]2[C@@H]3CC[C@H]4C[C@@H](O)CC[C@@H]4[C@H]3CC[C@]12C | 19%
8 | C[C@@H]([C@H]1CC[C@H]2[C@@H]3CC=C4C[C@@H](O)CC[C@]4(C)[C@H]3CC[C@]12C)C(C)(C)O | 4%
9 | CC(O)CC[C@@H](C)[C@H]1CC[C@H]2[C@@H]3CC=C4C[C@@H](O)CC[C@]4(C)[C@H]3CC[C@]12C (stereo partly shown) | 42%
10 | C[C@H](CCC(C)(C)O)[C@H]1CC[C@H]2[C@@H]3CC=C4C[C@](C)(O)CC[C@]4(C)[C@H]3CC[C@]12C | 13%
11 | C[C@H](CCC(C)(C)N)[C@H]1CC[C@H]2[C@@H]3CC=C4C[C@@H](O)CC[C@]4(C)[C@H]3CC[C@]12C | −8%
12 | CC[C@]1(O)CC[C@@]2(C)C(=CC[C@H]3[C@@H]4CC[C@H]([C@H](C)CCC(C)(C)O)[C@@]4(C)CC[C@@H]32)C1 | 181%
13 | CC[C@@]1(O)CC[C@@]2(C)C(=CC[C@H]3[C@@H]4CC[C@H]([C@H](C)CCC(C)(C)O)[C@@]4(C)CC[C@@H]32)C1 | 23%
14 | CNC(C)(C)CC[C@@H](C)[C@H]1CC[C@H]2[C@@H]3CC=C4C[C@@H](O)CC[C@]4(C)[C@H]3CC[C@]12C | 25%
15 | C[C@H](CCC(C)(C)O)[C@H]1CC[C@H]2[C@@H]3CC[C@H]4C[C@@](C)(O)CC[C@@H]4[C@H]3CC[C@]12C | 25%
16 | C[C@H](CCC(C)(C)O)[C@H]1CC[C@H]2[C@@H]3CC[C@H]4C[C@](C)(O)CC[C@@H]4[C@H]3CC[C@]12C | 21%
17 | C[C@H](CCC(C)(C)O)[C@H]1CC[C@H]2[C@@H]3CC[C@H]4C[C@](O)(C(F)(F)F)CC[C@@H]4[C@H]3CC[C@]12C | 14%
18 | C[C@H](CCC(C)(C)O)[C@H]1CC[C@H]2[C@@H]3CC[C@H]4C[C@@H](O)CC[C@]4(C)[C@H]3CC[C@]12C | 18%
19 | C[C@H](CCC(C)(C)O)[C@H]1CC[C@H]2[C@@H]3CC[C@H]4C[C@](O)(C(F)(F)F)CC[C@]4(C)[C@H]3CC[C@]12C | 59%
20 | C[C@H](CCC(C)(C)O)[C@H]1CC[C@H]2[C@@H]3CC[C@H]4C[C@](C)(O)CC[C@]4(C)[C@H]3CC[C@]12C | 19%
21 | C[C@H](CCC(C)(C)O)[C@H]1CC[C@H]2[C@@H]3CC[C@H]4C[C@@](C)(O)CC[C@]4(C)[C@H]3CC[C@]12C | 87% and 70%
22 | C[C@H](CC(C)(C)O)[C@H]1CC[C@H]2[C@@H]3CC=C4C[C@@H](O)CC[C@]4(C)[C@H]3CC[C@]12C | −5%
23 | CC(C)[C@H](O)CC[C@@H](C)[C@H]1CC[C@H]2[C@@H]3CC=C4C[C@@H](O)CC[C@]4(C)[C@H]3CC[C@]12C | 82%
24 | C[C@H](CCC(C)(C)O)[C@H]1CC[C@H]2[C@@H]3CC[C@@H]4C[C@@](O)(C(F)(F)F)CC[C@]4(C)[C@H]3CC[C@]12C | 9%
25 | COC[C@@]1(O)CC[C@@]2(C)[C@@H](CC[C@@H]3[C@@H]2CC[C@]2(C)[C@@H]([C@H](C)CCC(C)(C)O)CC[C@@H]32)C1 | 8%
26 | COC[C@]1(O)CC[C@@]2(C)[C@@H](CC[C@@H]3[C@@H]2CC[C@]2(C)[C@@H]([C@H](C)CCC(C)(C)O)CC[C@@H]32)C1 | 14%
27 | CC(C)(O)CCC[C@H]1CCC2C3CC[C@H]4C[C@@](C)(O)CC[C@]4(C)C3CC[C@@]21C (stereo partly shown) | 17%
28 | CC(C)(O)CCO[C@H]1CCC2C3CC[C@H]4C[C@@](C)(O)CC[C@]4(C)C3CC[C@@]21C (stereo partly shown) | 6%
29 | CC(C)(O)COC[C@H]1CCC2C3CC=C4C[C@@](C)(O)CC[C@]4(C)C3CC[C@@]21C (stereo partly shown) | −5%

same assay, conditions: compound 1 uM, currents evoked by 30 μM NMDA and 5.0 μM Glycine, holding potential −80 mV

Row | Compound | NMDA 1a2A (%) Potentiation 1 uM
30 | CC(CCC(C)(C)O)[C@H]1CC[C@H]2[C@@H]3CC=C4C[C@@H](O)CC[C@]4(C)[C@H]3CC[C@]12C (stereo partly shown) | 197%
31 | C[C@H](CCC(C)(C)O)[C@H]1CC[C@H]2[C@@H]3CC=C4C[C@@](C)(O)CC[C@]4(C)[C@H]3CC[C@]12C | 348%
32 | C[C@H](CCC(C)(C)O)[C@H]1CC[C@H]2[C@@H]3CC=C4C[C@@H](O)CC[C@@H]4[C@H]3CC[C@]12C | 66%
33 | C[C@H](CCC1(O)CC1)[C@H]1CC[C@H]2[C@@H]3CC=C4C[C@@H](O)CC[C@]4(C)[C@H]3CC[C@]12C | 171%
34 | C[C@H](CC(F)(F)CO)[C@H]1CC[C@H]2[C@@H]3CC=C4C[C@@H](O)CC[C@]4(C)[C@H]3CC[C@]12C | 95%
35 | C[C@H](CCCO)[C@H]1CC[C@H]2[C@@H]3CC=C4C[C@@H](O)CC[C@]4(C)[C@H]3CC[C@]12C | 127%
36 | C[C@H](CCC(C)(C)O)[C@H]1CC[C@H]2[C@@H]3CC[C@H]4C[C@@H](O)CC[C@@H]4[C@H]3CC[C@]12C | 44%
37 | C[C@@H]([C@H]1CC[C@H]2[C@@H]3CC=C4C[C@@H](O)CC[C@]4(C)[C@H]3CC[C@]12C)C(C)(C)O | 24%
38 | CC(O)CC[C@@H](C)[C@H]1CC[C@H]2[C@@H]3CC=C4C[C@@H](O)CC[C@]4(C)[C@H]3CC[C@]12C (stereo partly shown) | 98%
39 | C[C@H](CCC(C)(C)O)[C@H]1CC[C@H]2[C@@H]3CC=C4C[C@](C)(O)CC[C@]4(C)[C@H]3CC[C@]12C | 60%
40 | C[C@H](CCC(C)(C)N)[C@H]1CC[C@H]2[C@@H]3CC=C4C[C@@H](O)CC[C@]4(C)[C@H]3CC[C@]12C | −19%
41 | CC[C@]1(O)CC[C@@]2(C)C(=CC[C@H]3[C@@H]4CC[C@H]([C@H](C)CCC(C)(C)O)[C@@]4(C)CC[C@@H]32)C1 | 286%
42 | CC[C@@]1(O)CC[C@@]2(C)C(=CC[C@H]3[C@@H]4CC[C@H]([C@H](C)CCC(C)(C)O)[C@@]4(C)CC[C@@H]32)C1 | 139%
43 | CNC(C)(C)CC[C@@H](C)[C@H]1CC[C@H]2[C@@H]3CC=C4C[C@@H](O)CC[C@]4(C)[C@H]3CC[C@]12C | 19%
44 | C[C@H](CCC(C)(C)O)[C@H]1CC[C@H]2[C@@H]3CC[C@H]4C[C@@](C)(O)CC[C@@H]4[C@H]3CC[C@]12C | 114%
45 | C[C@H](CCC(C)(C)O)[C@H]1CC[C@H]2[C@@H]3CC[C@H]4C[C@](C)(O)CC[C@@H]4[C@H]3CC[C@]12C | 52%
46 | C[C@H](CCC(C)(C)O)[C@H]1CC[C@H]2[C@@H]3CC[C@H]4C[C@](O)(C(F)(F)F)CC[C@@H]4[C@H]3CC[C@]12C | 85%
47 | C[C@H](CCC(C)(C)O)[C@H]1CC[C@H]2[C@@H]3CC[C@H]4C[C@@H](O)CC[C@]4(C)[C@H]3CC[C@]12C | 85%
48 | C[C@H](CCC(C)(C)O)[C@H]1CC[C@H]2[C@@H]3CC[C@H]4C[C@](O)(C(F)(F)F)CC[C@]4(C)[C@H]3CC[C@]12C | 172%
49 | C[C@H](CCC(C)(C)O)[C@H]1CC[C@H]2[C@@H]3CC[C@H]4C[C@](C)(O)CC[C@]4(C)[C@H]3CC[C@]12C | 30%
50 | C[C@H](CCC(C)(C)O)[C@H]1CC[C@H]2[C@@H]3CC[C@H]4C[C@@](C)(O)CC[C@]4(C)[C@H]3CC[C@]12C | 278% and 238%
51 | C[C@H](CC(C)(C)O)[C@H]1CC[C@H]2[C@@H]3CC=C4C[C@@H](O)CC[C@]4(C)[C@H]3CC[C@]12C | 27%
52 | CC(C)[C@H](O)CC[C@@H](C)[C@H]1CC[C@H]2[C@@H]3CC=C4C[C@@H](O)CC[C@]4(C)[C@H]3CC[C@]12C | 137%
53 | C[C@H](CCC(C)(C)O)[C@H]1CC[C@H]2[C@@H]3CC[C@@H]4C[C@@](O)(C(F)(F)F)CC[C@]4(C)[C@H]3CC[C@]12C | 18%
54 | COC[C@@]1(O)CC[C@@]2(C)[C@@H](CC[C@@H]3[C@@H]2CC[C@]2(C)[C@@H]([C@H](C)CCC(C)(C)O)CC[C@@H]32)C1 | 25%
55 | COC[C@]1(O)CC[C@@]2(C)[C@@H](CC[C@@H]3[C@@H]2CC[C@]2(C)[C@@H]([C@H](C)CCC(C)(C)O)CC[C@@H]32)C1 | 110%
56 | CC(C)(O)CCC[C@H]1CCC2C3CC[C@H]4C[C@@](C)(O)CC[C@]4(C)C3CC[C@@]21C (stereo partly shown) | 105%
57 | CC(C)(O)CCO[C@H]1CCC2C3CC[C@H]4C[C@@](C)(O)CC[C@]4(C)C3CC[C@@]21C (stereo partly shown) | 27%
58 | CC(C)(O)COC[C@H]1CCC2C3CC=C4C[C@@](C)(O)CC[C@]4(C)C3CC[C@@]21C (stereo partly shown) | −14%

molecular target: NMDA (NR1a/NR2A) (Homo sapiens, UniProt Q05586+Q12879); assay: not given; settings: reported, Madau et al. / Connick et al. 2009; cited from earlier work
Sequence (Q12879 23-1464, other chains not shown): as above

Row | Compound | modulation of NMDA (NR1a/NR2A) | selectivity NMDA over GABAA
59 | C[C@H](CCC(C)(C)O)[C@H]1CC[C@H]2[C@@H]3CC=C4C[C@@H](O)CC[C@]4(C)[C@H]3CC[C@]12C [Org-1] | positive modulator | selectively modulate NMDA over GABAA

test system: NMDA receptors; assay: not given; settings: background statement; cited from earlier work

Row | Compound | modulation of NMDA receptors
60 | pregnenolone sulfate [PS] | positively modulated
